In US8507472B2 (priority 2010, dated 2013):
Where two headings read alike, the source gives them in different places.

Legend:
[1] = system: Alternaria solani; assay: Alternaria test (tomato)/protective; type: in vivo
Summary of the method: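 Young tomato plants were sprayed with compound (DMF/emulsifier formulation diluted in water) and inoculated with A. solani spores 1 day later. Plants were kept 24 h at 100% RH and 22 °C, then at 96% RH and 20 °C. Efficacy was scored 7 days post-inoculation, where 0% equals untreated control and 100% means no infection.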

[2] = system: Botrytis cinerea; assay: Botrytis test (bean)/protective; type: in vivo; conditions: 100 ppm active compound, protective, evaluation 2 days after inoculation
Summary of the method: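 Young bean plants sprayed at the stated rate with compound in acetone/dimethylacetamide plus alkylaryl polyglycol ether emulsifier, diluted in water. Once dry, each leaf got 2 agar pieces colonized by Botrytis cinerea; kept dark at about 20° C., 100% humidity. Infected area scored after 2 days; 0% = control, 100% = no infection.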

[3] = system: Fusarium graminearum; type: in vivo
[4] = system: Fusarium nivale (var. majus); assay: Fusarium nivale (var. majus) test (wheat)/protective; type: in vivo; conditions: 1000 ppm active compound, protective, evaluation 5 days after inoculation
Summary of the method: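 Protective spray of young wheat plants at the stated rate (compound in dimethylacetamide with emulsifier, diluted in water), then inoculation with Fusarium nivale spores once dry. Plants kept at 10 °C and 100% humidity; scored 5 days after inoculation as % efficacy, where 0% equals untreated control and 100% means no infection.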

[5] = system: Leptosphaeria nodorum; assay: Leptosphaeria nodorum test (wheat)/protective; type: in vivo
Summary of the method: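 Young wheat plants were sprayed protectively, then inoculated 1 day later with L. nodorum spores and held 48 h at 100% humidity and 22° C. They were then kept in a greenhouse at 90% humidity and 22° C. Efficacy was scored 7-9 days post-inoculation, where 0% equals control and 100% means no infection.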

[6] = system: Phytophthora infestans; type: in vivo
[7] = system: Puccinia triticina; assay: Puccinia triticina test (wheat)/protective; type: in vivo
Summary of the method: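 Protective test: young wheat plants sprayed with compound (dimethylacetamide/alkylaryl polyglycol ether formulation, water-diluted) at stated rate, then inoculated with Puccinia triticina spores once dry; 48 h at 20 °C, 100% RH, then greenhouse ~20 °C, ~80% RH. Efficacy scored 8 days post-inoculation, 0% = control, 100% = no infection.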

[8] = system: Pyrenophora teres; assay: Pyrenophora teres test (barley)/protective; type: in vivo
Summary of the method: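 Protective test: young barley plants sprayed at the stated rate with compound in DMF/alkylaryl polyglycol ether diluted with water, inoculated with P. teres spores 1 day later, kept 48 h at 100% rel. humidity and 22° C., then greenhouse at 80% and 20° C. Efficacy scored 7-9 days post-inoculation (0% = control, 100% = no infection).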

[9] = system: Septoria tritici; assay: Septoria tritici test (wheat)/protective; type: in vivo; conditions: in vivo
Summary of the method: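 Young wheat plants were sprayed protectively with compound (dimethylacetamide/emulsifier formulation diluted in water), then inoculated with Septoria tritici spores after drying. Incubation was 48 hours at 20° C and 100% humidity, then 60 hours at 15° C and 100% humidity, then greenhouse at about 15° C, 80% humidity; efficacy was scored 21 days post-inoculation (0% = control, 100% = no infection).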

[10] = system: Sphaerotheca fuliginea; assay: Sphaerotheca test (cucumber)/protective; type: in vivo
Summary of the method: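 Protective test: young cucumber plants sprayed with compound (DMF/alkylaryl polyglycol ether concentrate diluted in water) at the stated rate, inoculated with S. fuliginea spores 1 day later, then kept in greenhouse at 23 °C, 70% RH. Efficacy scored 7 days post-inoculation; 0% equals untreated control, 100% means no infection.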

[11] = system: Uromyces appendiculatus; assay: Uromyces test (bean)/protective; type: in vivo
Summary of the method: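 Young bean plants sprayed with compound formulated in acetone/dimethylacetamide with emulsifier, inoculated with Uromyces appendiculatus spores after drying, held 1 day at ~20 °C and 100% humidity, then greenhouse ~21 °C, ~90% humidity. Efficacy scored 10 days post-inoculation, 0% = untreated control, 100% = no infection.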

[12] = system: Venturia inaequalis; assay: Venturia test (apple)/protective; type: in vivo; conditions: 100 ppm active compound, protective, evaluation 10 days after inoculation
Summary of the method: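 Young apple plants sprayed protectively with compound (in acetone/dimethylacetamide with alkylaryl polyglycol ether, diluted in water) at the stated rate, then inoculated with V. inaequalis conidia once dry. Held 1 day at ~20° C, 100% humidity, then greenhouse ~21° C, ~90% humidity; efficacy scored 10 days post-inoculation (0% = control, 100% = no infection).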

[13] = system: Pyricularia oryzae; conditions: in vivo
[14] = system: Rhizoctonia solani; assay: Rhizoctonia test (rice)/protective; type: in vivo; conditions: 250 ppm active compound, protective, evaluation 4 days after inoculation
Method: (§1) Solvent: 28.5 parts by weight of acetone
(§2) Emulsifier: 1.5 parts by weight of alkylaryl polyglycol ether
(§3) To produce a suitable preparation of active compound, 1 part by weight of active compound is mixed with the stated amount of solvent, and the concentrate is diluted with water and the stated amount of emulsifier to the desired concentration.
To test for protective activity, young rice plants are sprayed with the active compound preparation at the stated application rate. 1 day after the treatment, the plants are inoculated with hyphae of Rhizoctonia solani. The plants are then placed in a greenhouse at 100% relative atmospheric humidity and 25° C.
Evaluation is carried out 4 days after the inoculation. 0% means an efficacy which corresponds to that of the control, whereas an efficacy of 100% means that no infection is observed.

[15] = system: Cochliobolus miyabeanus; assay: Cochliobolus test (rice)/protective; type: in vivo; conditions: 250 ppm active compound, protective, evaluation 4 days after inoculation
[16] = system: Gibberella zeae; conditions: in vivo
[17] = system: DON/AcDON production; assay: microbe, parasite or virus in culture; type: cell-based, Fusarium graminearum; conditions: 7 days at 28° C.
[18] = system: Fusarium graminearum; assay: microbe, parasite or virus in culture; type: cell-based
[19] = system: Phakopsora pachyrhizi; assay: Phakopsora test (Sojabohnen)/protective; type: in vivo; conditions: 250 ppm active compound, protective, evaluation 1 day after inoculation
Method: as §1, §2, §3
[…] 1 day after the treatment, the plants are inoculated with an aqueous spore suspension of Phakopsora pachyrhizi. The plants are then placed in a greenhouse at 80% relative atmospheric humidity and 20° C.
Evaluation is carried out 1 day after the inoculation. 0% means an efficacy which corresponds to that of the control, whereas an efficacy of 100% means that no infection is observed.

[20] = log P determination by HPLC retention times (alkan-2-one calibration)
[21] = 500 ppm active compound, tomato, protective, evaluation 7 days after inoculation

| SMILES | efficacy in % ([1]; in vivo) [%] | efficacy in % [2] [%] | efficacy in % ([3]; in vivo) [%] | efficacy in % [4] [%] | efficacy in % ([5]; in vivo) [%] | efficacy in % ([6]; in vivo) [%] | efficacy in % ([7]; in vivo) [%] | efficacy in % ([8]; in vivo) [%] | efficacy in % [9] [%] | efficacy in % ([10]; in vivo) [%] | efficacy in % ([11]; in vivo) [%] | efficacy in % [12] [%] | efficacy in % [13] [%] | efficacy in % [14] [%] | efficacy in % [15] [%] | efficacy in % [16] [%] | % inhibition of DON/AcDON at 50 μM [17] [%] | % inhibition of the fungal growth of Fusarium graminearum at 50 μM [18] [%] | further results |
| --- | --- | --- | --- | --- | --- | --- | --- | --- | --- | --- | --- | --- | --- | --- | --- | --- | --- | --- | --- |
| O=C(Cc1ccccc1)Nc1cc(-c2c(-c3ccc(F)cc3)nn3c2CCCC3)ccn1 [Example 34] | 100 | 99 | 100 | 100 | 95 | 95 | 94 | 94 | 93 | 100 | 95 | 95 | 95 | 85 | 90 | 80 | 99 | 98 | – |
| CCC(=O)Nc1cc(-c2c(-c3ccc(F)cc3)nn3c2CCCC3)ccn1 [Example 5, N-{4-[2-(4-Fluorophenyl)-4,5,6,7-tetrahydropyrazolo[1,5-a]pyridin-3-yl]pyridin-2-yl}propanamide] | – | 100 | – | 100 | – | – | – | – | – | – | – | 98 | – | – | – | – | – | – | efficacy in % [1, 21]: 100%; efficacy in % ([3]; 1000 ppm active compound, barley, protective, evaluation 5 days after inoculation): 100%; efficacy in % ([5]; 500 ppm active compound, wheat, protective, evaluation 7-9 days after inoculation): 94%; efficacy in % [6, 21]: 95%; efficacy in % ([7]; 1000 ppm active compound, wheat, protective, evaluation 8 days after inoculation): 100%; efficacy in % ([8]; 500 ppm active compound, barley, protective, evaluation 7-9 days after inoculation): 100%; efficacy in % ([10]; 500 ppm active compound, cucumber, protective, evaluation 7 days after inoculation): 95%; efficacy in % ([11]; 100 ppm active compound, bean, protective, evaluation 10 days after inoculation): 98%; efficacy in % [19]: 80%; inhibition at 50 µM ([17]; Fusarium graminearum, 168 h): 99%; inhibition at 50 µM ([18]; Fusarium graminearum, 72 h, read-out: % inhibition of the fungal growth of Fusarium graminearum at 50 μM): 100%; chromatographic logP ([20]; log P(HCOOH), HCOOH, preparation examples in the text): 1.97; chromatographic logP ([20]; log P, values marked [a] in Table 1): 1.97; chromatographic logP ([20]; log P, values marked [b] in Table 1): 2.58 |
| CC(C)C(=O)Nc1cc(-c2c(-c3ccccc3)nn3c2CCCC3)ccn1 [Example 29] | 100 | 100 | 94 | 86 | 90 | 90 | 94 | 100 | 71 | 83 | 94 | 95 | 95 | 100 | 95 | 80 | 99 | 100 | – |
